Blank lines part the entries; values can stand above or below the molecule they belong to.
Key:
[1] = tested on: LRAT mRNA; test: Northern blot analysis of LRAT transcripts after culture with retinoic acid; format: cell-based, human; settings: 1 μM retinoic acid for 48 h; HUVEC, CCD42-SK, GM0970, HMEC, HNBE, NT2
From the text: (§1) Total cellular RNA was isolated from cultured cells using RNA Stat-60 according to the manufacturer's instruction (Tel-Test, Friendswood, Tex.). RNA was electrophoretically fractionated by size on 1% agarose/2.2 M formaldehyde gels, transferred to nylon filters by blotting, and attached to the filters using a UV Stratalinker 1800. The cDNA probes used in this analysis were radiolabeled with [^32P]dCTP using a random primer labeling kit (Boehringer Mannheim, Indianapolis, Ind.) according to the manufacturer's directions. Glyceraldehyde phosphate dehydrogenase cDNA was used as a probe for Northern blots as described previously (Guo, et al. Cancer Res. 1998, 58:166-176; Chen, et al. J. Biol. Chem. 1996, 271:14971-14980). AHD-2 cDNA, isolated from a murine liver cDNA library by this laboratory (Chen, Mol. Pharm. 1994, 46:88-96), was used as a probe; this cDNA encodes an aldehyde dehydrogenase class I enzyme, also called ALDH-1 in human. The human LRAT cDNA clone was an Eco RI fragment (840 bp) as described (Ruiz, et al. J. Biol. Chem. 1999, 274:3834-3841). The human neutral, bile salt independent retinyl ester hydrolase and the hepatic, bile sale dependent retinyl ester hydrolase were EST clones #g4069398 and #g2237729, respectively, from Genome Systems (St. Louis, Mo.). […]

[2] = tested on: RA hydroxylase (CYP26) gene; test: Northern blot analysis of RA hydroxylase (CYP26) gene in MCF-7; format: cell-based, human; settings: MCF-7 following retinoic acid addition
From the text: as §1

[3] = tested on: RA hydroxylase (CYP26) gene; test: Northern blot analysis of RA hydroxylase (CYP26) gene in other tumor lines and normal cell strains; format: cell-based, human; settings: other tumor lines or normal cell strains cultured with or without RA
From the text: as §1

[4] = tested on: normal epithelial cell strains HMEC, ADO74, NHEK, OKP-7; test: [^3H]retinol esterification in normal epithelial cell strains; format: cell-based, human; settings: 50 nM [^3H]retinol in the medium
Protocol: (§2) All retinoid solutions and samples were handled under red or dim light. […] A separate control consisting of labeling medium without cells was included during the incubation period. Cells and one-fourth of the media were collected. Cells were washed once with 0.5 ml of phosphate-buffered saline (PBS) and removed from the monolayer in 0.5 ml PBS by scraping. Samples were stored at −70° C. until retinoid extraction. The cell numbers were counted from parallel dishes from each treatment at the time of cell harvest. The retinoids were extracted as described previously (McLean, et al. Clin. Chem. 1982, 28:693-696). Non-radiolabeled retinoid standards were added to the samples prior to extraction. Briefly, 350 μl acetonitrile/butanol (50:50, v/v), 0.1% butylated hydroxytoluene (BHT) was added to 0.5 ml of cells or medium samples. The mixtures were vortexed thoroughly for 30 sec. After addition of 300 μl of a saturated (1.3 kg/liter) K2HPO4 solution and thorough mixing, the samples were centrifuged for 10 min at 3000 g. […] The HPLC analysis was performed using a Waters Millenium system (Waters Corp.) to separate the various retinoids. […] Non-radiolabeled retinoid standards were run concurrently and monitored at a wavelength of 340 nm while a Packard A-500 radiochromatography detector (Packard Instruments, Downers Grove, Ill.) was used to monitor the labeled retinoids. […]

[5] = tested on: fibroblast cell strains GM0970 and CCD42-SK; test: [^3H]retinol metabolism in normal fibroblast cell strains; format: cell-based, human; settings: 15-24 h culture in the presence of [^3H]retinol
Protocol: as §2

[6] = tested on: human umbilical vein endothelial cells (HUVEC); test: [^3H]retinol metabolism in HUVEC; format: cell-based; settings: 15 h culture, 50 nM [^3H]retinol
Protocol: as §2

[7] = tested on: normal human bronchial epithelial cells (NHBE); test: [^3H]retinol esterification in NHBE; format: cell-based; settings: 15 h culture
Protocol: as §2

[8] = tested on: normal human epidermal keratinocytes (NHEK); test: [^3H]retinol esterification in NHEK; format: cell-based; settings: 15 h culture
Protocol: as §2

[9] = tested on: MCF-7 breast carcinoma cell line; test: [^3H]retinol esterification in MCF-7; format: cell-based, human; settings: MCF-7, 22 h culture, 50 nM
Protocol: as §2

[10] = tested on: SCC-12 skin squamous carcinoma line; test: [^3H]retinol esterification in SCC-12; format: cell-based, human; settings: SCC-12, 22 h culture, 50 nM
Protocol: (§3) The retinoids were extracted as described previously (McLean, et al. Clin. Chem. 1982, 28:693-696). Non-radiolabeled retinoid standards were added to the samples prior to extraction. Briefly, 350 μl acetonitrile/butanol (50:50, v/v), 0.1% butylated hydroxytoluene (BHT) was added to 0.5 ml of cells or medium samples. The mixtures were vortexed thoroughly for 30 sec. After addition of 300 μl of a saturated (1.3 kg/liter) K2HPO4 solution and thorough mixing, the samples were centrifuged for 10 min at 3000 g. The upper organic layer was collected and transferred to an injector vial for automated HPLC analysis.
(§4) The HPLC analysis was performed using a Waters Millenium system (Waters Corp.) to separate the various retinoids. Samples were applied to an analytical 5 μm reverse-phase C18 column (Vydac, Hesperia, Calif.) at a flow rate of 1.5 ml/min. The gradient consisted of a 35 min linear gradient from 15 mM ammonium acetate, pH 6.5, in water to 85% acetonitrile in a 10 min linear gradient from 85% acetonitrile to acetonitrile-dichloromethane (80:20) followed by a 15 min hold. Non-radiolabeled retinoid standards were run concurrently and monitored at a wavelength of 340 nm while a Packard A-500 radiochromatography detector (Packard Instruments, Downers Grove, Ill.) was used to monitor the labeled retinoids. […]

[11] = tested on: SCC-40 carcinoma line from the soft palate; test: [^3H]retinol esterification in SCC-40; format: cell-based, human; settings: SCC-40, 22 h exposure, 50 nM
Protocol: as §2

[12] = tested on: OKP-7 cells; test: [^3H]retinol pulse chase in OKP-7; format: cell-based, human
Protocol: (§5) For the pulse chase experiments, the cells were cultured for 24 h in 100 nM [^3H]retinol. Cells were then rinsed three times with warm PBS over a 30 minute period, and then incubated in growth medium without [^3H]retinol for an additional one to eight days. At various times following the removal of [^3H]retinol from the medium, dishes of cells were harvested and retinoids were extracted and subjected to HPLC analysis.
as §3
as §4, with “The gradient consisted of a 35 min linear gradient from 15 mM ammonium acetate, pH 6.5, in water to 85% acetonitrile in a 10 min linear gradient from 85% acetonitrile to acetonitrile-dichloromethane (80:20) followed by a 15 min hold.” left out
(§6) Therefore, in this series of experiments the cells were cultured in the presence of 100 nM [^3H]retinol and 900 nM retinol in the medium for 24 h, followed by the removal of the [^3H]retinol from the medium. The cells were washed several times, and then dishes of cells were harvested at various times following the removal of [^3H]retinol from the medium, retinoids were extracted from the cells, and the [^3H]retinoids were analyzed by HPLC.

[13] = tested on: ADO74 cells; test: [^3H]retinol pulse chase in ADO74; format: cell-based, human
Protocol: as §5, §3
as §4, with “The gradient consisted of a 35 min linear gradient from 15 mM ammonium acetate, pH 6.5, in water to 85% acetonitrile in a 10 min linear gradient from 85% acetonitrile to acetonitrile-dichloromethane (80:20) followed by a 15 min hold.” left out
as §6

[14] = tested on: SCC-40 squamous cell carcinoma line; test: [^3H]retinol pulse chase in SCC-40; format: cell-based, human
Protocol: as §5
(§7) The retinoids were extracted as described previously (McLean, et al. Clin. Chem. 1982, 28:693-696). Non-radiolabeled retinoid standards were added to the samples prior to extraction. […]
(§8) The HPLC analysis was performed using a Waters Millenium system (Waters Corp.) to separate the various retinoids. […] Non-radiolabeled retinoid standards were run concurrently and monitored at a wavelength of 340 nm while a Packard A-500 radiochromatography detector (Packard Instruments, Downers Grove, Ill.) was used to monitor the labeled retinoids. […]
as §6

[15] = tested on: MDA-MB-231 breast carcinoma line; test: [^3H]retinol pulse chase in MDA-MB-231; format: cell-based, human
Protocol: as §5, §7, §8, §6

[16] = OKP-7, four to eight days after [^3H]retinol removal
[17] = ADO74, four to eight days after [^3H]retinol removal

expression of RA hydroxylase (CYP26) gene [2]: strongly expressed
Molecule: CC1=C(/C=C/C(C)=C/C=C/C(C)=C/C(=O)O)C(C)(C)CCC1 [retinoic acid, all-trans retinoic acid]
effect on levels of LRAT mRNA [1]: a slight increase in LRAT mRNA
expression of RA hydroxylase (CYP26) gene [3]: not expressed at detectable levels

time by which all of the [^3H]retinol in the medium had been esterified [4]: 6 to 8 h
esterification of [^3H]retinol to retinyl esters [7]: extensive esterification
esterification of [^3H]retinol to retinyl esters [8]: extensive esterification
[^3H]retinol esterification [10]: some [^3H]retinol esterification
intracellular concentration of [^3H]retinyl esters ([12]; OKP-7, four days after removal of [^3H]retinol, 100 nM [^3H]retinol and 900 nM retinol for 24 h): approximately 26 μM
intracellular concentration of [^3H]retinoic acid [12, 16]: 1 to 2 µM
intracellular concentration of [^3H]retinol [12, 16]: 3 to 10 µM
intracellular concentration of [^3H]retinyl esters ([13]; ADO74, four days after removal of [^3H]retinol, 100 nM [^3H]retinol and 900 nM retinol for 24 h): ~30 µM
intracellular concentration of [^3H]retinoic acid [13, 17]: 1 to 2 µM
intracellular concentration of [^3H]retinol [13, 17]: 3 to 10 µM
time after removal by which no [^3H]retinol is detectable intracellularly ([14]; SCC-40): ≤ 24 h
retinyl esters at the time of [^3H]retinol removal ([14]; SCC-40, day 0): no detectable retinyl esters
time after removal by which no [^3H]retinol is detectable intracellularly ([15]; MDA-MB-231): ≤ 24 h
retinyl esters at the time of [^3H]retinol removal ([15]; MDA-MB-231, day 0): no detectable retinyl esters
Molecule: [^3H]retinol
retinol metabolism [5]: Essentially no retinol metabolism occurred
retinyl esters found [6]: only trace amounts of retinyl esters were found
[^3H]retinol esterification [9]: did not exhibit [^3H]retinol esterification
[^3H]retinol esterification [11]: did not exhibit any significant [^3H]retinol esterification
